Numbers after ± are expanded uncertainties.
Settings: Liquid, Pulse-echo method

Structure (SMILES): CCCCCCCCC [nonane]
- speed of sound (293.15 K, 100 kPa): 1226.4 ± 5 m/s
- speed of sound (293.15 K, 10000 kPa): 1288 ± 5.2 m/s
- speed of sound (293.15 K, 20000 kPa): 1344.8 ± 5.4 m/s
- speed of sound (293.15 K, 30000 kPa): 1396.9 ± 5.6 m/s
- speed of sound (293.15 K, 40000 kPa): 1445.1 ± 5.8 m/s
- speed of sound (293.15 K, 50000 kPa): 1490.1 ± 6 m/s
- speed of sound (293.15 K, 60000 kPa): 1532.5 ± 6.2 m/s
- speed of sound (293.15 K, 70000 kPa): 1572.5 ± 6.4 m/s
- speed of sound (293.15 K, 80000 kPa): 1610.6 ± 6.5 m/s
- speed of sound (293.15 K, 90000 kPa): 1646.9 ± 6.7 m/s
- speed of sound (293.15 K, 100000 kPa): 1681.6 ± 6.8 m/s
- speed of sound (313.15 K, 100 kPa): 1146.2 ± 4.7 m/s
- speed of sound (313.15 K, 10000 kPa): 1212.8 ± 4.9 m/s
- speed of sound (313.15 K, 20000 kPa): 1274.2 ± 5.2 m/s
- speed of sound (313.15 K, 30000 kPa): 1329.8 ± 5.4 m/s
- speed of sound (313.15 K, 40000 kPa): 1380.9 ± 5.6 m/s
- speed of sound (313.15 K, 50000 kPa): 1428.3 ± 5.8 m/s
- speed of sound (313.15 K, 60000 kPa): 1472.7 ± 6 m/s
- speed of sound (313.15 K, 70000 kPa): 1514.7 ± 6.1 m/s
- speed of sound (313.15 K, 80000 kPa): 1554.4 ± 6.3 m/s
- speed of sound (313.15 K, 90000 kPa): 1592 ± 6.4 m/s
- speed of sound (313.15 K, 100000 kPa): 1628 ± 6.6 m/s
- speed of sound (333.15 K, 100 kPa): 1068.2 ± 4.3 m/s
- speed of sound (333.15 K, 10000 kPa): 1140.9 ± 4.6 m/s
- speed of sound (333.15 K, 20000 kPa): 1206.9 ± 4.9 m/s
- speed of sound (333.15 K, 30000 kPa): 1266.2 ± 5.1 m/s
- speed of sound (333.15 K, 50000 kPa): 1369.8 ± 5.5 m/s
- speed of sound (333.15 K, 60000 kPa): 1416.3 ± 5.7 m/s
- speed of sound (333.15 K, 70000 kPa): 1460.1 ± 5.9 m/s
- speed of sound (333.15 K, 80000 kPa): 1501.3 ± 6.1 m/s
- speed of sound (333.15 K, 90000 kPa): 1540.3 ± 6.2 m/s
- speed of sound (333.15 K, 100000 kPa): 1577.4 ± 6.4 m/s
- speed of sound (353.15 K, 100 kPa): 992.62 ± 4 m/s
- speed of sound (353.15 K, 10000 kPa): 1072.6 ± 4.4 m/s
- speed of sound (353.15 K, 20000 kPa): 1142.6 ± 4.6 m/s
- speed of sound (353.15 K, 30000 kPa): 1205.6 ± 4.9 m/s
- speed of sound (353.15 K, 40000 kPa): 1262.5 ± 5.1 m/s
- speed of sound (353.15 K, 50000 kPa): 1314.6 ± 5.3 m/s
- speed of sound (353.15 K, 60000 kPa): 1363.2 ± 5.5 m/s
- speed of sound (353.15 K, 70000 kPa): 1408.5 ± 5.7 m/s
- speed of sound (353.15 K, 80000 kPa): 1451.3 ± 5.9 m/s
- speed of sound (353.15 K, 90000 kPa): 1491.7 ± 6 m/s
- speed of sound (353.15 K, 100000 kPa): 1529.8 ± 6.2 m/s
- speed of sound (373.15 K, 100 kPa): 922.16 ± 3.8 m/s
- speed of sound (373.15 K, 10000 kPa): 1005 ± 4.1 m/s
- speed of sound (373.15 K, 20000 kPa): 1081.3 ± 4.4 m/s
- speed of sound (373.15 K, 30000 kPa): 1148.1 ± 4.7 m/s
- speed of sound (373.15 K, 40000 kPa): 1208 ± 4.9 m/s
- speed of sound (373.15 K, 50000 kPa): 1262.5 ± 5.1 m/s
- speed of sound (373.15 K, 60000 kPa): 1313.1 ± 5.3 m/s
- speed of sound (373.15 K, 70000 kPa): 1360.1 ± 5.5 m/s
- speed of sound (373.15 K, 80000 kPa): 1404.3 ± 5.7 m/s
- speed of sound (373.15 K, 90000 kPa): 1446.1 ± 5.8 m/s
- speed of sound (373.15 K, 100000 kPa): 1485.5 ± 6 m/s
- speed of sound (393.15 K, 10000 kPa): 946.87 ± 3.9 m/s
- speed of sound (393.15 K, 20000 kPa): 1022.9 ± 4.2 m/s
- speed of sound (393.15 K, 30000 kPa): 1093.7 ± 4.4 m/s
- speed of sound (393.15 K, 40000 kPa): 1156.6 ± 4.7 m/s
- speed of sound (393.15 K, 50000 kPa): 1213.6 ± 4.9 m/s
- speed of sound (393.15 K, 60000 kPa): 1266.1 ± 5.1 m/s
- speed of sound (393.15 K, 70000 kPa): 1314.7 ± 5.3 m/s
- speed of sound (393.15 K, 80000 kPa): 1360.4 ± 5.5 m/s
- speed of sound (393.15 K, 90000 kPa): 1403.3 ± 5.7 m/s
- speed of sound (393.15 K, 100000 kPa): 1443.7 ± 5.8 m/s

— the NIST ThermoML archive (doi:10.1007/s10765-006-0079-5)
